The source of these data is patent US20250017964A1, “ENGINEERING OR INDUCING PDGF AND/OR PDGFR SIGNALING TO ENHANCE NK CELL THERAPY” (City of Hope, priority 2021, published 2025).

Test [1] relates to IL-15-induced PDGFRβ expression. Briefly: Inhibition assay: IL-15-induced PDGFRβ expression after inhibitor pretreatment, flow cytometry. The following applies: washed, IL-15 10 ng/ml 24 h; for inhibition of PDGFRβ expression: DMSO control. Format: cell-based, human. The protocol: FIGS. 2A-2I. […] (A-B) Primary NK cells were treated with IL-15 (10 ng/ml) for the indicated times. mRNA levels of PDGFRB at different time points (A) (n=3) or at 1 h (B) (n=10) were examined by qPCR. (C-D) Primary NK cells were pretreated with actinomycin D (ActD, 5., g/ml) (C) or cycloheximide (CHX, 20 μg/ml) (D) for 1 h, washed twice with RPMI-1640, and then treated with IL-15 (10 ng/ml) for 24 h. DMSO was used as a control. Expression levels of PDGFRβ were examined by flow cytometry (n=5). […] (E) Primary NK cells were pretreated with wortmannin (1 μM), afuresertib (10 μM), TPCA-1 (1 μM), rapamycin (10 μM), torin1 (10 μM), decernotinib (10 μM), C118-9 (10 μM), STAT5-IN-1 (10 μM), AZD6244 (10 μM), or CI-1040 (10 μM) for 1 h, washed twice with RPMI 1640, and then treated with IL-15 (10 ng/ml) for 24 h. DMSO was used as control. Data shown are % of inhibition (n=5). The mean value of the inhibitory rate is shown. […] (G-I) Binding of p65 to the PDGFRB promoter in IL-15-treated NK cells (G) or resting NK cells (H) as determined by ChIP-qPCR or PCR (I) (n=3). Data represent three independent experiments. Data shown are means SD. NS, not significant. *P<0.05, **P<0.01, ***P<0.001, and ****P<0.0001.
FIGS. 8A-8E. […] (A) Scheme for the three IL-15 signaling pathways and their inhibitors. (B) Representative dot plots of PDGFRβ expression in NK cells treated with specific inhibitors. (C) Binding sites for p65 in the promoter regions of PDGFRB and PDGF-D genes (predicted from http://jaspar.genereg.net). […] The cells were collected for an immunoblot using anti-phosphor (p)-p65, anti-p65, and anti-actin antibodies. The ratios of p-p65 to actin were calculated using ImageJ (n=3). Data shown represent the mean±SD. NS, not significant, **P<0.01, ****P<0.0001.
(§1) NK cells were cultured in RPMI 1640 with 10% heat-inactivated FBS (Gibco) at 37° C. in a 5% CO2 humidified incubator. For NK cell transduction, PDGFRB cDNA ORF clone (Cat: HG10514-G) was purchased from Sino Biological and cloned into pCDH-CMV-MCS-EF1-copGFP lentivirus vector (System Biosciences). To produce lentivirus, we transfected the lentiviral transfer vector DNA, together with psPAX2 packaging (Addgene) and pMD2.G envelope plasmid DNA (Addgene), into HEK293T cells; using a polyethyenimine (PEI) transfection protocol (Polysciences). Concentrated lentivirus was added to primary NK cells cultured in RPMI 1640 medium supplemented with 10% FCS and 10 jig/mL polybrene with 2,000×g centrifugation for 2 h. Cells were cultured for an additional 48 h. […] The cells were then collected for flow cytometry analysis. For the inhibition assay, NK cells were pretreated with the indicated inhibitors for 1 h, washed twice with RPMI 1640. and then treated with IL-15 for 24 h.
Cells were stained with the indicated cell-surface markers and/or fixed/permeabilized using a Fixation/Permeabilization Kit (eBioscience). For intracellular staining of IFN-γ and PDGF-D, 5 μg/ml Brefeldin A (BioLegend) was added for 4 h before cell harvest. Intracellular staining of Ki67 was performed by fixing and permeabilizing with the Foxp3/Transcription Factor Staining Kit (eBioscience). For CD107a staining, CD107a antibody was added into the culture for 4 h in the presence of Brefeldin A. Annexin V staining was performed using an FITC Annexin V Apoptosis Detection Kit according to the manufacturer's protocol (BD Biosciences). Flow cytometry analysis was performed on BD LSRFortessa X-20 (BD Biosciences). Data were analyzed using NovoExpress software (Agilent Technologies).

For test [2], the system named is PDGFRβ expression in human NK cells. Nature of the test: Cytokine-induced PDGFRβ expression in purified human NK cells, flow cytometry. It counts as cell-based. The following applies: cytokine 10 ng/ml, 24 h; IL-15 effect dose- and time-dependent.
Description: Data shown are the percentages of PDGFRβ^+ NK cells among total NK cells (n=5). […] Bar=20 μm. […] Data represent three independent experiments. Data shown are means SD.
FIGS. 7A-7F. […] Data shown are representative histograms and mean fluorescence intensity (MFI) of PDGFRα. […] Expression levels of PDGFRβ were examined by flow cytometry (n=6). […] Data shown are the percentages of PDGFRβ^+ NK cells among total NK cells (n=5). […] Data shown are representative histograms with MFI of PDGFRβ expression. (F) Expression levels of PDGFRβ on NK cells from IL-15 transgenic (Tg) mice were determined by flow cytometry. Data shown are representative histograms. Data represent three independent experiments.
as §1
Cells were stained with the indicated cell-surface markers and/or fixed/permeabilized using a Fixation/Permeabilization Kit (eBioscience). For intracellular staining of IFN-γ and PDGF-D, 5 μg/ml Brefeldin A (BioLegend) was added for 4 h before cell harvest. Intracellular staining of Ki67 was performed by fixing and permeabilizing with the Foxp3/Transcription Factor Staining Kit (eBioscience).

[3] abbreviates: inhibitor 10 μM pretreatment 1 h.
Setting [4] is: inhibitor 1 μM pretreatment 1 h.

*1 amine or outer side, *2 acyl side, *3 side chain or, on linkers, in order; H or OH if unused. Where a SMILES comes first, the peptide text is derived from it. Bridges are numbered along the chain shown (N, C = ends). Roman numbers before positions name the chains, in order. [ ]: non-standard residue; d: D form. Actinocin(9to1) = Cc1c2oc3c(C)ccc(C(=O)[*:1])c3nc-2c(C(=O)[*:2])c(N)c1=O; NMeV = CN[C@H](C(=O)O)C(C)C; Sar = CNCC(=O)O

`CCC(=O)N1CCN(c2ccc(-n3c(=O)ccc4cnc5ccc(-c6cnc7ccccc7c6)cc5c43)cc2C(F)(F)F)CC1` [torin1]: the “effect on IL-15-induced PDGFRβ expression” value in test [1] (setting [3]) was “dramatically and significantly blocked”.

`O=C(N/N=C/c1coc2ccccc2c1=O)c1cccnc1` [STAT5-IN-1]: in test [1] (setting [3]), the “effect on IL-15-induced PDGFRβ expression” value is given as “either little inhibition or even promoted”.

As for `CC[C@@](C)(Nc1ccnc(-c2c[nH]c3ncccc23)n1)C(=O)NCC(F)(F)F` [decemotinib, decernotinib], in test [1] (setting [3]), the “effect on IL-15-induced PDGFRβ expression” value is on record as “approximately one third”.

As for `COC[C@H]1OC(=O)c2coc3c2[C@@]1(C)C1=C(C3=O)[C@@H]2CCC(=O)[C@@]2(C)C[C@H]1OC(C)=O` [wortmannin], the “inhibition of PDGFRβ expression” value in test [1] (setting [4]) was around 70%.

Turning to `NC(=O)Nc1sc(-c2ccc(F)cc2)cc1C(N)=O` [TPCA-1], in test [1] (setting [4]), the “effect on IL-15-stimulated PDGFRβ expression” value is “completely prevented”.

Take `O=C(NOCC1CC1)c1ccc(F)c(F)c1Nc1ccc(I)cc1Cl` [CI-1040]: the “effect on IL-15-induced PDGFRβ expression” value in test [1] (setting [3]) was “either little inhibition or even promoted”.

Regarding `Cc1c2oc3c(C)ccc(C(=O)N[C@@H]4C(=O)N[C@H](C(C)C)C(=O)N5CCC[C@H]5C(=O)N(C)CC(=O)N(C)[C@@H](C(C)C)C(=O)O[C@@H]4C)c3nc-2c(C(=O)N[C@@H]2C(=O)N[C@H](C(C)C)C(=O)N3CCC[C@H]3C(=O)N(C)CC(=O)N(C)[C@@H](C(C)C)C(=O)O[C@@H]2C)c(N)c1=O` [actinomycin D] (I: T[dV]P[Sar][NMeV] / II: T[dV]P[Sar][NMeV]; ester I:1-I:C, II:1-II:C; linker I:N-II:N via Actinocin(9to1)), the “effect on IL-15-induced PDGFRβ expression” value in test [1] (ActD pretreatment 1 h) is “no longer induced PDGFRβ expression”.

Regarding IL-18: recombinant human IL-18 (B001-5), the PDGFRβ expression entry in test [2] was “ineffective”.

In the case of `C[C@@H]1C[C@@H]([C@H](O)CC2CC(=O)NC(=O)C2)C(=O)[C@@H](C)C1` [cycloheximide], the “effect on IL-15-induced PDGFRβ expression” value in test [1] (CHX, 20 μg/ml pretreatment 1 h) is reported as “completely inhibited”.

For `Cn1ncc(Cl)c1-c1cc(C(=O)N[C@H](CN)Cc2cccc(F)c2)sc1Cl` [afuresertib], in test [1] (setting [3]), the “inhibition of PDGFRβ expression” value was around 70%.

Take `Cn1cnc2c(F)c(Nc3ccc(Br)cc3Cl)c(C(=O)NOCCO)cc21` [AZD6244]: the “effect on IL-15-induced PDGFRβ expression” value in test [1] (setting [3]) is recorded as “either little inhibition or even promoted”.
